Where a SMILES comes first, the peptide text is derived from it. [ ]: non-standard residue; d: D form. The star is where a group is joined. Stearoyl = CCCCCCCCCCCCCCCCCC(=O)*; Nle = CCCC[C@H](N)C(=O)O
What was measured:
U-87 cells = experiment: U-87 colony formation in soft agar; format: cell-based; conditions: in vitro
Source text: The effects of VIP receptor antagonists on glioblastoma cell lines were investigated.

[1] = system: NCI-H727 non-small cell lung cancer (carcinoid); experiment: MTS cell proliferation assay, SNH and chemotherapy; format: cell-based; conditions: 8 μM SNH, 6 hour incubation, then 66 hour fresh medium
Description: NCI-H727 and LNCaP were grown in RPMI 1640 medium supplemented with 10% heat inactivated FCS, L-glutamine and antibiotics. HT-29 and CT-26 were grown in DMEM medium supplemented with 10% heat-inactivated FCS (fetal calf serum), L-glutamine and antibiotics. The cells were cultured in 5% CO2/95% air at […] and used during their exponential growth phase. Routinely, the cells which are adherent, were split when a subconfluent monolayer was formed. In different experiments, various concentration of FCS were used. For growth inhibition experiments, subconfluent adherent cells were washed with PBS and treated with trypsin/versene. The cells were pelleted and resuspended in medium to a final concentration of 75,000 cells/mL for NCI-H727. 50,000 cells/mL for LNCaP and HT-29 and 25000 cells/mL for CT-26. These different concentrations were used in order to avoid confluence in the wells at the end of the experiment and correspond to the different doubling times of the cell lines. On day 0, cells suspensions […] were dispensed using a multi-channel pipet into the individual wells of a 96-well tissue culture plate (Nuncion, Nunc Brand Products). […] Cells were incubated for 24 hours in a humidified atmosphere of 95% air/5% CO2 at 37° C. before treatment. On day 1, the cells were treated with different drugs and schedules and maintained under the same conditions. On day 4, viable cell number was determined by a modified MTT assay i.e., MTS non-radioactive cell proliferation assay (Promega). […] Results were finally expressed as percentage of the control, which was obtained from the samples with no drug treatment. Dose-response curves were plotted using a Sigma-Plot software and statistically analyzed using Student test. To determine the effect of the lipophilic VIP antagonist SNH on cell proliferation, cells plated in 96-well microplates for 24 hours as described, were treated with various concentrations of SNH. The peptide was diluted in PBS and […] of the peptide solution was added to each well for a final concentration of the peptide between 10^−510^−9 M. The solvent was added to the control wells. […] A dose-response curve was obtained at concentrations ranging from 2 μM-10 μM (see, FIG. 2). […] The effects of an 8 hours treatment were slightly less, showing that most of the effect is in the initial hours of exposure and much more dose than time dependent. […] For the experiments with the combinations of VIP antagonists and chemotherapeutic agents, on day 0, the cells were plated for 24 hours in medium supplemented with 5% FCS. On day 1, the peptide was added to the wells followed 1 hour later by the chemotherapeutic agents. […] The chemotherapeutic drugs were tested over 7 concentrations, covering as much as possible of the dose response curve of each individual drug. 24 hours later, the medium was exchanged and the cells incubated under the same conditions for another 48 hours. On day 4 the number of viable cells was determined by MTS assay.

CCCCCCCCCCCCCCCCCC(=O)N[C@@H](CCCCN)C(=O)N1CCC[C@H]1C(=O)N[C@@H](CCCNC(=N)N)C(=O)N[C@@H](CCCNC(=N)N)C(=O)N1CCC[C@H]1C(=O)N[C@@H](Cc1ccc(O)cc1)C(=O)N[C@H](C(=O)N[C@@H](CC(=O)O)C(=O)N[C@@H](CC(N)=O)C(=O)N[C@@H](Cc1ccc(O)cc1)C(=O)N[C@H](C(=O)N[C@@H](CCCNC(=N)N)C(=O)N[C@@H](CC(C)C)C(=O)N[C@@H](CCCNC(=N)N)C(=O)N[C@@H](CCCCN)C(=O)N[C@@H](CCC(N)=O)C(=O)N[C@@H](CCCC)C(=O)N[C@@H](C)C(=O)N[C@H](C(=O)N[C@@H](CCCCN)C(=O)N[C@@H](CCCCN)C(=O)N[C@@H](Cc1ccc(O)cc1)C(=O)N[C@@H](CC(C)C)C(=O)N[C@@H](CC(N)=O)C(=O)N[C@@H](CO)C(=O)N[C@H](C(=O)N[C@@H](CC(C)C)C(=O)N[C@@H](CC(N)=O)C(N)=O)[C@@H](C)CC)C(C)C)[C@@H](C)O)[C@@H](C)O [SNH] (Stearoyl-KPRRPYTDNYTRLRKQ[Nle]AVKKYLNSILN-NH2)
relative potency at inhibiting U-87 colony formation (U-87 cells): more potent than VIP hybrid | reduction in viable cells [1]: 40%

Source: patent publication US6630124B1, “Combination therapy with VIP antagonist” (Ramot-University Authority for Applied Research and …, priority 1998, dated 2003)
